Assay results: the supplement of paper PMC10307832

Key:
Test in all cases: relative viability (nuclei count vs DMSO), 5 days (fraction); higher = more cells survive
Avagacestat + Lapatinib = compound: NC(=O)[C@@H](CCC(F)(F)F)N(Cc1ccc(-c2ncon2)cc1F)S(=O)(=O)c1ccc(Cl)cc1 [Avagacestat] + CS(=O)(=O)CCNCc1ccc(-c2ccc3ncnc(Nc4ccc(OCc5cccc(F)c5)c(Cl)c4)c3c2)o1 [Lapatinib] (partner 2 µM)
Procedure, shortened: (§1)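 Dosing by pin tool came one day after lung cancer cell lines were seeded in 1536-well plates, using either one drug or a fixed anchor-drug dose plus five library-drug doses (not always all listed) in √10 steps. After 5 days, nuclei were counted on 4× images. Relative viability is treated-well nuclei count divided by vehicle-well nuclei count, and values are medians of duplicate plates.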

Avagacestat + Linsitinib = compound: NC(=O)[C@@H](CCC(F)(F)F)N(Cc1ccc(-c2ncon2)cc1F)S(=O)(=O)c1ccc(Cl)cc1 [Avagacestat] + C[C@]1(O)C[C@@H](c2nc(-c3ccc4ccc(-c5ccccc5)nc4c3)c3c(N)nccn32)C1 [Linsitinib] (partner 1 µM)
Procedure, shortened: as §1

Avagacestat + OSI-027 = compound: NC(=O)[C@@H](CCC(F)(F)F)N(Cc1ccc(-c2ncon2)cc1F)S(=O)(=O)c1ccc(Cl)cc1 [Avagacestat] + COc1cccc2cc(-c3nc([C@H]4CC[C@H](C(=O)O)CC4)n4ncnc(N)c34)[nH]c12 [OSI-027] (partner 0.5 µM)
Procedure, shortened: as §1

Avagacestat + Luminespib = compound: NC(=O)[C@@H](CCC(F)(F)F)N(Cc1ccc(-c2ncon2)cc1F)S(=O)(=O)c1ccc(Cl)cc1 [Avagacestat] + CCNC(=O)c1noc(-c2cc(C(C)C)c(O)cc2O)c1-c1ccc(CN2CCOCC2)cc1 [Luminespib] (partner 0.01 µM)
Procedure, shortened: as §1

Cell Line	relative viability (Avagacestat + Lapatinib; first compound 0.08 µM)	relative viability (Avagacestat + Lapatinib; first compound 0.253 µM)	relative viability (Avagacestat + Lapatinib; first compound 0.8 µM)	relative viability (Avagacestat + Lapatinib; first compound 2.53 µM)	relative viability (Avagacestat + Lapatinib; first compound 8 µM)	relative viability (Avagacestat + Linsitinib; first compound 0.08 µM)	relative viability (Avagacestat + Linsitinib; first compound 0.253 µM)	relative viability (Avagacestat + Linsitinib; first compound 0.8 µM)	relative viability (Avagacestat + Linsitinib; first compound 2.53 µM)	relative viability (Avagacestat + Linsitinib; first compound 8 µM)	relative viability (Avagacestat + OSI-027; first compound 0.08 µM)	relative viability (Avagacestat + OSI-027; first compound 0.253 µM)	relative viability (Avagacestat + OSI-027; first compound 0.8 µM)	relative viability (Avagacestat + OSI-027; first compound 2.53 µM)	relative viability (Avagacestat + OSI-027; first compound 8 µM)	relative viability (Avagacestat + Luminespib; first compound 0.08 µM)	relative viability (Avagacestat + Luminespib; first compound 0.253 µM)	relative viability (Avagacestat + Luminespib; first compound 0.8 µM)	relative viability (Avagacestat + Luminespib; first compound 2.53 µM)	relative viability (Avagacestat + Luminespib; first compound 8 µM)
NCI-H2009	0.963	0.995	0.857	0.993	0.814	1.26	1.34	1.2	1.22	1.1	0.708	0.749	0.662	0.579	0.563	1.13	1.03	1.2	1.04	0.901
PC-3 [JPC-3]	0.485	0.541	0.472	0.479	0.475	1.01	1.02	0.976	1.04	0.967	0.912	0.799	0.908	0.697	0.735	0.677	0.81	0.785	0.671	0.628
NCI-H1563	0.959	0.806	0.951	0.828	0.925	1.25	1.26	1.18	1.03	1	0.829	0.776	0.736	0.735	0.719	0.552	0.558	0.575	0.503	0.543
LCLC-97TM1	0.771	1.29	0.977	0.703	0.86	0.161	0.212	0.155	0.151	0.163	0.562	0.674	0.424	0.694	0.518	0.849	1.03	0.837	0.705	0.718
NCI-H520	1.03	0.878	0.846	0.724	0.663	1.15	1.09	0.933	0.864	0.889	0.241	0.316	0.22	0.249	0.215	0.223	0.241	0.239	0.218	0.23
UMC-11	1.17	1	1.26	1.1	0.921	1.2	1.12	1.18	1.04	0.933	0.52	0.454	0.503	0.461	0.465	1.18	1.35	1.1	1.16	1.14
BEN	0.886	0.768	0.685	0.592	0.585	0.898	1.07	1.02	0.76	0.847	0.313	0.303	0.544	0.303	0.327	0.396	0.308	0.675	0.326	0.238
COR-L23	1.26	1.1	1.3	0.95	0.4	1.21	0.896	0.869	0.764	0.573	1.06	1.02	0.906	0.697	0.661	1.08	0.803	1.08	0.642	0.512
NCI-H1651	1.11	1.03	0.883	0.762	0.672	1.37	1.17	1.05	0.854	0.828	0.761	0.814	0.848	0.751	0.656	1.09	0.931	0.726	0.719	0.852
SW 1573	1.19	1.21	0.982	1.1	1.09	0.894	0.876	0.756	0.771	0.699	0.8	0.654	0.806	0.61	0.446	0.341	0.257	0.218	0.196	0.214
NCI-H1975	0.852	1.1	1.03	0.935	0.859	1.14	1.19	1.04	0.943	0.994	0.874	0.709	0.873	0.582	0.603	0.216	0.164	0.207	0.182	0.154
NCI-H650	1.2	1.04	1.03	1.1	0.835	1.22	0.927	1.08	0.912	0.848	0.638	0.472	0.576	0.573	0.445	0.91	0.965	0.92	0.831	0.818
LC-2-ad	1.04	1.16	1.03	0.996	0.867	0.819	0.896	0.87	0.778	0.807	0.796	0.898	0.855	0.795	0.739	1.18	1.05	1.18	0.948	1.14
